Calls of active or inactive are those of the source. The rule behind the calls is not given here.
Columns and labels:
[1] = target: T1, M-phase inducer phosphatase 1 (Homo sapiens) (UniProt P30304); test: (§1) Inhibition of human recombinant full length GST-tagged CDC25A transfected in Escherichia coli BL21-DE3 using 3-O-methylfluorescein phosphate as substrate at 10 uM incubated for 20 mins followed by substrate addition measured every 10 mins for 2 hrs by fluorimetric assay
T1 sequence (whole entry): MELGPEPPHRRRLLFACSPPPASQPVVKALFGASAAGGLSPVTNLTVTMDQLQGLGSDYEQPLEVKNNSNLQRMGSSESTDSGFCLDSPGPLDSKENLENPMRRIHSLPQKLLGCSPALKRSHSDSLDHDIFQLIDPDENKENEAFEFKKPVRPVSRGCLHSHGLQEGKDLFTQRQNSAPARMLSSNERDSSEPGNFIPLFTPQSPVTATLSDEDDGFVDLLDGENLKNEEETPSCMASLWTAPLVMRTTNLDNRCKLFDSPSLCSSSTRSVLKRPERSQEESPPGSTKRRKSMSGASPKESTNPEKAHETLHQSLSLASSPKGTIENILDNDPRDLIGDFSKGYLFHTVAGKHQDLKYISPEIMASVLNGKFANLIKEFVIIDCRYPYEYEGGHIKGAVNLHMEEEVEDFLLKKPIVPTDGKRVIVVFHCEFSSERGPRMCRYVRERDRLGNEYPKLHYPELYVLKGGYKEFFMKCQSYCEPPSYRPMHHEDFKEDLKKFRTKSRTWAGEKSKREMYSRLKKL

[2] = target: T2, M-phase inducer phosphatase 2 (Homo sapiens) (UniProt P30305); test: Inhibition of human recombinant GST-tagged CDC25B catalytic domain transfected in Escherichia coli BL21-DE3 using 3-O-methylfluorescein phosphate as substrate at 10 uM incubated for 20 mins followed by substrate addition measured every 10 mins for 2 hrs by fluorimetric assay
T2 sequence (whole entry): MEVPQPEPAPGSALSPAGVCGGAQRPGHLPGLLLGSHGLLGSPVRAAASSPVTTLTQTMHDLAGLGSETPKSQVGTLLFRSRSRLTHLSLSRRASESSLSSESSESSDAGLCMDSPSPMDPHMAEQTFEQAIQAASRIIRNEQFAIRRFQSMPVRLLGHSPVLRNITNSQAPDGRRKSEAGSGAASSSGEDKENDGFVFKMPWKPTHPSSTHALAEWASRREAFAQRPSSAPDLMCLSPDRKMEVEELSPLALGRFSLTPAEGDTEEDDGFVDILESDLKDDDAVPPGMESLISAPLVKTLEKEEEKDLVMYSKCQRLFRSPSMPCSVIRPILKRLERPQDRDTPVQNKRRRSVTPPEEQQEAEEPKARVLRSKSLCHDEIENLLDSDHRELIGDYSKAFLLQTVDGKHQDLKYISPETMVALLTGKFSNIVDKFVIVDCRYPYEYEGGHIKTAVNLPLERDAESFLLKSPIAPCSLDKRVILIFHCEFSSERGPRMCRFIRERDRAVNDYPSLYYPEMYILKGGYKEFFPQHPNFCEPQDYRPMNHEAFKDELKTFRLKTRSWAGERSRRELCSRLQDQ

[3] = target: T3, M-phase inducer phosphatase 3 (Homo sapiens) (UniProt P30307); test: Inhibition of human recombinant full length GST-tagged CDC25C transfected in Escherichia coli BL21-DE3 using 3-O-methylfluorescein phosphate as substrate at 10 uM incubated for 20 mins followed by substrate addition measured every 10 mins for 2 hrs by fluorimetric assay
T3 sequence (whole entry): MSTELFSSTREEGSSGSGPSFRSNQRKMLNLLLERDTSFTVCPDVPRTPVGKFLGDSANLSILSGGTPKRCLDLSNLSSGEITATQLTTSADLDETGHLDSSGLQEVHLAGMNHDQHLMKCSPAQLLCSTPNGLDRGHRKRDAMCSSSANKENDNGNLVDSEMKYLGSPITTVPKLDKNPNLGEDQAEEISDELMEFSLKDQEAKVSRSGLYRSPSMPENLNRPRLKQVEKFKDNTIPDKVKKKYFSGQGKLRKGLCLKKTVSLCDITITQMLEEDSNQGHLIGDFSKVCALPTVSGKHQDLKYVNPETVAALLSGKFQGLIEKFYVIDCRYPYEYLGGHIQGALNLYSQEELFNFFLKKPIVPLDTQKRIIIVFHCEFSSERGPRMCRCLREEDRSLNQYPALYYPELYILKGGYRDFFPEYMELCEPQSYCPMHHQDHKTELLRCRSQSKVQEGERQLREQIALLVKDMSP

[4] = target: T4, M-phase inducer phosphatase 1 (Homo sapiens, UniProt P30304); test: Inhibition of human recombinant full length GST-tagged CDC25A transfected in Escherichia coli BL21-DE3 using 3-O-methylfluorescein phosphate as substrate incubated for 20 mins followed by substrate addition measured every 10 mins for 2 hrs by fluorimetric assay
T4 sequence (P30304 whole entry): T1 sequence (whole entry)

[5] = target: T1, M-phase inducer phosphatase 1 (Homo sapiens); test: Reversible binding affinity to human recombinant full length GST-tagged CDC25A transfected in Escherichia coli BL21-DE3 after 1 hr by MALDI-TOF mass spectrometry
[6] = system: HT-29; test: Cytotoxicity against human HT-29 cells assessed as inhibition of cell growth after 72 hrs by MTT assay; format: functional, cell-based; conditions: HT-29, 72 h
[7] = system: MCF7; test: Cytotoxicity against human MCF7 cells assessed as inhibition of cell growth after 72 hrs by MTT assay; format: functional, cell-based; conditions: MCF7, 72 h
[8] = system: MDA-MB-231; test: Cytotoxicity against human MDA-MB-231 cells assessed as inhibition of cell growth after 72 hrs by MTT assay; format: functional, cell-based; conditions: MDA-MB-231, 72 h
[9] = system: MCF7; test: Cytotoxicity against human MCF7 cells assessed as inhibition of cell growth at IC50 concentration after 72 hrs by trypan blue assay; format: functional
[10] = system: MDA-MB-231; test: Cytotoxicity against human MDA-MB-231 cells assessed as inhibition of cell growth at IC50 concentration after 72 hrs by trypan blue assay; format: functional
[11] = target: T1, M-phase inducer phosphatase 1 (Homo sapiens); test: (§2) Inhibition of human recombinant full length GST-tagged CDC25A transfected in Escherichia coli BL21-DE3 using 3-O-methylfluorescein phosphate as substrate at 10 uM incubated for 20 mins followed by substrate addition measured every 10 mins for 2 hrs by fluorimetric assay in presence of 0.1% BSA
[12] = target: T1, M-phase inducer phosphatase 1 (Homo sapiens); test: as §1, with “assay in presence of 0.01% triton X 100” for “assay”
[13] = target: T1, M-phase inducer phosphatase 1 (Homo sapiens); test: as §1, with “assay in presence of 0.025% triton X 100” for “assay”
[14] = target: T1, M-phase inducer phosphatase 1 (Homo sapiens); test: as §1, with “assay in presence of 0.05% triton X 100” for “assay”
[15] = target: T1, M-phase inducer phosphatase 1 (Homo sapiens); test: as §2, with “triton X 100” for “BSA”
[16] = target: T1, M-phase inducer phosphatase 1 (Homo sapiens); test: as §1, with “assay in presence of 0.5% triton X 100” for “assay”
[17] = Cytotoxicity against human HCT116 cells assessed as inhibition of cell growth after 72 hrs by MTT assay; format: functional, cell-based; conditions: HCT-116, 72 h
[18] = system: MCF7; test: Cytotoxicity against human MCF7 cells assessed as cell growth at IC50 concentration after 72 hrs by trypan blue assay; format: functional
[19] = system: MDA-MB-231; test: Cytotoxicity against human MDA-MB-231 cells assessed as cell growth at IC50 concentration after 72 hrs by trypan blue assay; format: functional

Row | Compound | inhibition [1] [%] | inhibition [2] [%] | inhibition [3] [%] | IC50 [4] [µM] | Activity [5] | IC50 [6] [µM] | IC50 [7] [µM] | IC50 [8] [µM] | growth inhibition (GI) [9] | growth inhibition (GI) [10] [%] | inhibition [11] [%] | inhibition [12] [%] | inhibition [13] [%] | inhibition [14] [%] | inhibition [15] [%] | inhibition [16] [%] | IC50 [17] [µM] | Activity [18] [%] | Activity [19] [%]
1 | O=C1N/C(=N/c2nc3cc(-c4ccc(Cl)cc4)sc3s2)S/C1=C/c1ccc(F)cc1 | 65.6 | 35.4 | 15.5 | 7.8 | Active | > 50 | 21 | 24.7 | 60% | 30 | – | – | – | – | – | – | – | – | –
2 | O=C1C=CC(=O)c2ccccc21 | 79.7 | 71.2 | 99.2 | – | – | – | – | – | – | – | 20.3 | 20.6 | 18.6 | 26.5 | 24.7 | 26.3 | – | – | –
3 | O=C1N/C(=N/c2nc3cc(-c4ccc(Cl)cc4)sc3s2)S/C1=C/c1ccc(Cl)cc1 | – | – | – | – | – | > 50 | > 50 | – | – | – | – | – | – | – | – | – | – | – | –
4 | Cc1ccc(/C=C2/S/C(=N\c3nc4cc(-c5ccc(Cl)cc5)sc4s3)NC2=O)cc1 | 68.1 | 24.2 | 23.3 | 8.3 | Active | 45.5 | 3.3 | 22.8 | inactive | 70 | – | – | – | – | – | – | – | – | –
5 | O=C1CS/C(=N\c2nc3cc(-c4ccc(Cl)cc4)[se]c3s2)N1 | 4.2 | 17.4 | 15.6 | – | – | 42.4 | 21.8 | 35.6 | – | – | – | – | – | – | – | – | 43.8 | – | –
6 | O=C1N/C(=N/c2nc3cc(-c4ccc(Cl)cc4)sc3s2)S/C1=C/c1ccc2ccccc2c1 | 67 | 27.3 | 22.6 | 7.3 | Active | > 50 | 15.2 | > 50 | – | – | – | – | – | – | – | – | – | >80 | >80
7 | CN(C)c1ccc(/C=C2/S/C(=N\c3nc4cc(-c5ccc(Cl)cc5)sc4s3)NC2=O)cc1 | – | – | – | – | – | > 50 | > 50 | – | – | – | – | – | – | – | – | – | – | – | –
8 | O=C1CS/C(=N\c2nc3cc(-c4ccc(Cl)cc4)sc3s2)N1 | 6.8 | 21.6 | 16.4 | – | – | 13.6 | 12.4 | 18.8 | – | – | – | – | – | – | – | – | 14.5 | – | –
9 | O=C1N/C(=N/c2nc3cc(-c4ccc(Br)cc4)sc3s2)S/C1=C/c1ccc(Cl)cc1 | 28.4 | 3.8 | 6.1 | – | – | 15.2 | 11 | 22.3 | 25% | 35 | – | – | – | – | – | – | 15.5 | – | –

Reference: ChEMBL document CHEMBL3808363, “2-(Thienothiazolylimino)-1,3-thiazolidin-4-ones inhibit cell division cycle 25 A phosphatase” (Bioorg Med Chem, 2016)
